Reference: patent US20240132484A1, “BROAD SPECTRUM ANTIVIRAL COMPOUNDS TARGETING THE SKI COMPLEX” (priority 2020, published 2024)
Several values for one entry are separate records, joined by “and”; a condition that tells them apart may be missing. Identical values can stand only once. Like-named read-outs stand apart in the source and are kept apart here.

How the values were obtained:
SARS2 = format: cell-based, SARS-CoV-2; conditions: for Infection Data: Percentage Infection Relative to Appropriate DMSO Control: avg background subtraction, replicate wells; for Infection Data: Average, Mean / Infection Data, Average, Mean: average of Exp 1-3 (SMW475, SMW477, SMW478); for Infection Data: Average, Mean: n 9; for Percentage Inhibition Average 1 μM / Screening data (Relative infection to DMSO controls) Average 1 μM: SARS2, 1 μM; for Screening data (Relative infection to DMSO controls) Average 1 μM / Screening data (Relative infection to DMSO controls) Average 5 μM / Screening data (Relative infection to DMSO controls) Average 10 μM / Screening data (Relative infection to DMSO controls) Average 25 μM / Screening data (Relative infection to DMSO controls) Average 50 μM / Average (relative infection to DMSO over the 5 tested concentrations): 100=DMSO control; for Percentage Inhibition Average 5 μM / Screening data (Relative infection to DMSO controls) Average 5 μM: SARS2, 5 μM; for Percentage Inhibition Average 10 μM / Screening data (Relative infection to DMSO controls) Average 10 μM: SARS2, 10 μM; for Percentage Inhibition Average 25 μM / Screening data (Relative infection to DMSO controls) Average 25 μM: SARS2, 25 μM; for Percentage Inhibition Average 50 μM / Screening data (Relative infection to DMSO controls) Average 50 μM: SARS2, 50 μM; for Average (relative infection to DMSO over the 5 tested concentrations): SARS2, average over 1 to 50 uM
cells (nuclei count) = conditions: for Toxicity Data: Average, Mean / Toxicity Data, Average, Mean: average of Exp 1-3 (SMW475, SMW477, SMW478); for Toxicity Data: Average, Mean: n 9; for Relative cell count to DMSO controls, Average 1 μM / Relative cell count to DMSO controls, Average 5 μM / Relative cell count to DMSO controls, Average 10 μM / Relative cell count to DMSO controls, Average 25 μM / Relative cell count to DMSO controls, Average 50 μM: toxicity data, 100=DMSO control; for Relative cell count to DMSO controls, Average (for correlation analysis): average value over the 5 tested concentrations (1 to 50 uM)

Cc1cc(CN(CCN(C)C)Cc2ccco2)sc1Br [SILCS15]
Infection Data: Percentage Infection Relative to Appropriate DMSO Control (SARS2; 1 uM, Exp 1 (SMW475)): 117.62% and 124.56% and 121.12%
Infection Data: Percentage Infection Relative to Appropriate DMSO Control (SARS2; 1 uM, Exp 2 (SMW477)): 103.78% and 103.22% and 100.05%
Infection Data: Percentage Infection Relative to Appropriate DMSO Control (SARS2; 1 uM, Exp 3 (SMW478)): 107.90% and 99.19% and 97.03%
Infection Data: Average, Mean (SARS2; 1 uM): 108.27%
Infection Data: Percentage Infection Relative to Appropriate DMSO Control (SARS2; 5 uM, Exp 1 (SMW475)): 131.70% and 141.65% and 132.54%
Infection Data: Percentage Infection Relative to Appropriate DMSO Control (SARS2; 5 uM, Exp 2 (SMW477)): 102.31% and 90.53% and 98.90%
Infection Data: Percentage Infection Relative to Appropriate DMSO Control (SARS2; 5 uM, Exp 3 (SMW478)): 98.36% and 110.89% and 93.32%
Infection Data: Average, Mean (SARS2; 5 uM): 111.13%
Infection Data: Percentage Infection Relative to Appropriate DMSO Control (SARS2; 10 uM, Exp 1 (SMW475)): 79.51% and 121.98% and 93.64%
Infection Data: Percentage Infection Relative to Appropriate DMSO Control (SARS2; 10 uM, Exp 2 (SMW477)): 75.81% and 72.41% and 82.10%
Infection Data: Percentage Infection Relative to Appropriate DMSO Control (SARS2; 10 uM, Exp 3 (SMW478)): 111.15% and 106.59% and 85.32%
Infection Data: Average, Mean (SARS2; 10 uM): 92.05%
Infection Data: Percentage Infection Relative to Appropriate DMSO Control (SARS2; 25 uM, Exp 1 (SMW475)): 30.31% and 27.68% and 26.54%
Infection Data: Percentage Infection Relative to Appropriate DMSO Control (SARS2; 25 uM, Exp 2 (SMW477)): 35.02% and 27.68% and 29.29%
Infection Data: Percentage Infection Relative to Appropriate DMSO Control (SARS2; 25 uM, Exp 3 (SMW478)): 35.78% and 39.52% and 32.45%
Infection Data: Average, Mean (SARS2; 25 uM): 31.59%
Infection Data: Percentage Infection Relative to Appropriate DMSO Control (SARS2; 50 uM, Exp 1 (SMW475)): 23.93% and 15.87% and 20.00%
Infection Data: Percentage Infection Relative to Appropriate DMSO Control (SARS2; 50 uM, Exp 2 (SMW477)): 18.29% and 18.14% and 19.12%
Infection Data: Percentage Infection Relative to Appropriate DMSO Control (SARS2; 50 uM, Exp 3 (SMW478)): 20.62% and 25.98% and 33.79%
Infection Data: Average, Mean (SARS2; 50 uM): 21.75%
Percentage Inhibition Average 1 μM (SARS2): −8.27%
Screening data (Relative infection to DMSO controls) Average 1 μM (SARS2): 108.27
Percentage Inhibition Average 5 μM (SARS2): −11.13%
Screening data (Relative infection to DMSO controls) Average 5 μM (SARS2): 111.13
Percentage Inhibition Average 10 μM (SARS2): 7.95%
Screening data (Relative infection to DMSO controls) Average 10 μM (SARS2): 92.05
Percentage Inhibition Average 25 μM (SARS2): 68.41%
Screening data (Relative infection to DMSO controls) Average 25 μM (SARS2): 31.59
Percentage Inhibition Average 50 μM (SARS2): 78.25%
Screening data (Relative infection to DMSO controls) Average 50 μM (SARS2): 21.75
Average (relative infection to DMSO over the 5 tested concentrations) (SARS2): 72.96
Toxicity Data: Average, Mean (cells (nuclei count); 1 uM): 105.96%
Relative cell count to DMSO controls, Average 1 μM (cells (nuclei count)): 105.96
Toxicity Data: Average, Mean (cells (nuclei count); 5 uM): 104.00%
Relative cell count to DMSO controls, Average 5 μM (cells (nuclei count)): 104
Toxicity Data: Average, Mean (cells (nuclei count); 10 uM): 107.75%
Relative cell count to DMSO controls, Average 10 μM (cells (nuclei count)): 107.75
Toxicity Data: Average, Mean (cells (nuclei count); 25 uM): 115.74%
Relative cell count to DMSO controls, Average 25 μM (cells (nuclei count)): 115.74
Toxicity Data: Average, Mean (cells (nuclei count); 50 uM): 65.19%
Relative cell count to DMSO controls, Average 50 μM (cells (nuclei count)): 65.19
Relative cell count to DMSO controls, Average (for correlation analysis) (cells (nuclei count)): 99.73

COC(=O)c1csc(CN(CCN(C)C)Cc2ccccc2)c1 [SILCS30]
SARS2 antiviral activity (SARS2): decrease in activity
Percentage Infection Relative to Appropriate DMSO Control with Avg Background Subtraction (SARS2; Exp 1 (SMW475), 1 uM, single well): 105.27% and 104.72% and 85.58%
Percentage Infection Relative to Appropriate DMSO Control with Avg Background Subtraction (SARS2; Exp 1 (SMW475), 10 uM, single well): 111.40% and 92.91% and 108.37%
Percentage Infection Relative to Appropriate DMSO Control with Avg Background Subtraction (SARS2; Exp 1 (SMW475), 25 uM, single well): 63.92% and 51.24% and 55.41%
Percentage Infection Relative to Appropriate DMSO Control with Avg Background Subtraction (SARS2; Exp 1 (SMW475), 50 uM, single well): 32.13% and 25.36% and 23.71%
Percentage Infection Relative to Appropriate DMSO Control with Avg Background Subtraction (SARS2; Exp 2 (SMW477), 1 uM, single well): 113.51% and 96.27% and 114.57%
Percentage Infection Relative to Appropriate DMSO Control with Avg Background Subtraction (SARS2; Exp 2 (SMW477), 5 uM, single well): 117.23% and 99.87% and 114.31%
Percentage Infection Relative to Appropriate DMSO Control with Avg Background Subtraction (SARS2; Exp 2 (SMW477), 10 uM, single well): 121.60% and 100.99% and 139.28%
Percentage Infection Relative to Appropriate DMSO Control with Avg Background Subtraction (SARS2; Exp 2 (SMW477), 25 uM, single well): 71.18% and 69.34% and 78.15%
Percentage Infection Relative to Appropriate DMSO Control with Avg Background Subtraction (SARS2; Exp 2 (SMW477), 50 uM, single well): 17.82% and 25.00% and 26.06%
Percentage Infection Relative to Appropriate DMSO Control with Avg Background Subtraction (SARS2; Exp 3 (SMW478), 1 uM, Greiner Celigo plates): 81.75% and 100.71% and 99.49%
Percentage Infection Relative to Appropriate DMSO Control with Avg Background Subtraction (SARS2; Exp 3 (SMW478), 5 uM, Greiner Celigo plates): 89.39% and 93.72% and 82.15%
Percentage Infection Relative to Appropriate DMSO Control with Avg Background Subtraction (SARS2; Exp 3 (SMW478), 10 uM, Greiner Celigo plates): 73.78% and 69.60% and 68.94%
Percentage Infection Relative to Appropriate DMSO Control with Avg Background Subtraction (SARS2; Exp 3 (SMW478), 25 uM, Greiner Celigo plates): 79.03% and 71.83% and 64.72%
Percentage Inhibition Average 1 μM (SARS2): −0.21%
Screening data (Relative infection to DMSO controls) Average 1 μM (SARS2): 100.21
Percentage Inhibition Average 5 μM (SARS2): 15.19%
Screening data (Relative infection to DMSO controls) Average 5 μM (SARS2): 84.81
Percentage Inhibition Average 10 μM (SARS2): 1.46%
Screening data (Relative infection to DMSO controls) Average 10 μM (SARS2): 98.54
Percentage Inhibition Average 25 μM (SARS2): 32.80%
Screening data (Relative infection to DMSO controls) Average 25 μM (SARS2): 67.20
Percentage Inhibition Average 50 μM (SARS2): 75.16%
Screening data (Relative infection to DMSO controls) Average 50 μM (SARS2): 24.84
Average (relative infection to DMSO over the 5 tested concentrations) (SARS2): 75.12
Infection Data, Average, Mean (SARS2; n 9, 1 uM): 100.21%
Infection Data, Average, Mean (SARS2; n 9, 5 uM): 84.81%
Infection Data, Average, Mean (SARS2; n 9, 10 uM): 98.54%
Infection Data, Average, Mean (SARS2; n 9, 25 uM): 67.20%
Infection Data, Average, Mean (SARS2; n 9, 50 uM): 24.84%
Relative cell count to DMSO controls, Average 1 μM (cells (nuclei count)): 108.24
Relative cell count to DMSO controls, Average 5 μM (cells (nuclei count)): 110.62
Relative cell count to DMSO controls, Average 10 μM (cells (nuclei count)): 102.59
Relative cell count to DMSO controls, Average 25 μM (cells (nuclei count)): 104.38
Relative cell count to DMSO controls, Average 50 μM (cells (nuclei count)): 86.57
Toxicity Data, Average, Mean (cells (nuclei count); n 9, 1 uM): 108.24%
Toxicity Data, Average, Mean (cells (nuclei count); n 9, 5 uM): 110.62%
Toxicity Data, Average, Mean (cells (nuclei count); n 9, 10 uM): 102.59%
Toxicity Data, Average, Mean (cells (nuclei count); n 9, 25 uM): 104.38%
Toxicity Data, Average, Mean (cells (nuclei count); n 9, 50 uM): 86.57%
Relative cell count to DMSO controls, Average (for correlation analysis) (cells (nuclei count)): 102.48
